Assay results as given in patent publication US20180194762A1 (Pharmacyclics LLC, priority 2017, published 2018).
Like-named read-outs stand apart in the source and are kept apart here.

Assays:
Assay type in all cases: biochemical
panel of kinases = target: T1, panel of kinases (Homo sapiens, UniProt P51813); experiment: Inhibition of a panel of kinases (in vitro HotSpot kinase assay, 33P-ATP, 1 μM ATP), other kinases; conditions: BMX wild-type, read-out: BMX-WT IC50
T1 sequence (P51813 1-675): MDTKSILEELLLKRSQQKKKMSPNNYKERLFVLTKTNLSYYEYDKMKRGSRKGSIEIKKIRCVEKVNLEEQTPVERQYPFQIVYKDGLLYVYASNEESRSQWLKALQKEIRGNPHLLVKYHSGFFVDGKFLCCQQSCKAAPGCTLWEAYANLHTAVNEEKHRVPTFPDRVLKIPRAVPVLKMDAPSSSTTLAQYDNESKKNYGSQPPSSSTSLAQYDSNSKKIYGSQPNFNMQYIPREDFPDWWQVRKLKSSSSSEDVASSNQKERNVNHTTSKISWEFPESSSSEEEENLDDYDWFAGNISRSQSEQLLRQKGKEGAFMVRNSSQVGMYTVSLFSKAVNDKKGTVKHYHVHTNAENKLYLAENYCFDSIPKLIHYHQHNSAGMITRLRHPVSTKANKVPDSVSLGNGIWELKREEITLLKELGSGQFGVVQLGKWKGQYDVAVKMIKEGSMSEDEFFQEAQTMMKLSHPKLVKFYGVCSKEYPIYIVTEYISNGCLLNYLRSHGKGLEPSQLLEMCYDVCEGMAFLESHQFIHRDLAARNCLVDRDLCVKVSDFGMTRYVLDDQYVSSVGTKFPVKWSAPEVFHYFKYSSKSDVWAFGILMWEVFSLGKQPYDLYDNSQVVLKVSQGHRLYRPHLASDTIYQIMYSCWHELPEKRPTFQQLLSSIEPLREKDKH
How it was run: (§1)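 Purified kinase enzymes were incubated with an appropriate substrate and 33P-labelled ATP at 1 μM ATP. Inhibition was measured radiometrically from incorporation of the 33P label.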

Btk = target: T2, Btk (Homo sapiens, UniProt Q06187); experiment: Btk in vitro inhibitory activity (one of Method A TR-FRET, Method B electrophoretic mobility shift, Method C radiometric filter binding)
T2 construct: purified from insect cells as a full-length construct containing a N-terminal 6X-His tag; His6 (N); made in house; host or cells: insect cells (Method C)
T2 sequence (Q06187 whole entry): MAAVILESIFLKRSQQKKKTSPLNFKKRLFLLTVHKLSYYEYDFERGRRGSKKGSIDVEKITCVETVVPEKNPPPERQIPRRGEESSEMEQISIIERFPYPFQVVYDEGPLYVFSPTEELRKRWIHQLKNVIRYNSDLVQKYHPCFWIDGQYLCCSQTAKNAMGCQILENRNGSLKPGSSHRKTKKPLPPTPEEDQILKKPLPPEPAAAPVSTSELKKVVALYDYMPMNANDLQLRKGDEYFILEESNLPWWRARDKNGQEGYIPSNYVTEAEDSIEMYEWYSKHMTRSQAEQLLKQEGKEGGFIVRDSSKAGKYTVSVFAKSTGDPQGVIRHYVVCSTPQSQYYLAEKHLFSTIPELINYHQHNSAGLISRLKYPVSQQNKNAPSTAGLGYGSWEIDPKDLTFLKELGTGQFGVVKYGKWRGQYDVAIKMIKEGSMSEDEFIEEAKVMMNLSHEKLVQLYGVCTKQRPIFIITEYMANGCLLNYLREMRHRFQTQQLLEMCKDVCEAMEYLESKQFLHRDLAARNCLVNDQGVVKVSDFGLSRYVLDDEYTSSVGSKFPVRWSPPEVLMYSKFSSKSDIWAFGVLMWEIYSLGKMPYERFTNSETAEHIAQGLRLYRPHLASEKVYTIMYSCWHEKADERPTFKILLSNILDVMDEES
How it was run: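 Method A: TR-FRET with 0.5 nM Btk at [ATP]=Km, EDTA-quenched, 665/615 nm ratio; Ki(app) converted to IC50. Method B: 1 nM full-length His6 human BTK, 1 μM FAM peptide, pH 7.5, mobility-shift product/sum ratio, 12-point 4-parameter fit. Method C: radiometric filter binding, 8 nM His-tagged BTK, 0.2 mg/mL poly-Glu-Tyr.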

TEC = target: T3, TEC (Homo sapiens, UniProt P42680); experiment: Inhibition of a panel of kinases (in vitro HotSpot kinase assay, 33P-ATP, 1 μM ATP); conditions: for IC50: HotSpot kinase assay, 1 μM ATP; for TEC/Btk: ratio of TEC IC50 to Btk IC50 (selectivity)
T3 sequence (P42680 1-631): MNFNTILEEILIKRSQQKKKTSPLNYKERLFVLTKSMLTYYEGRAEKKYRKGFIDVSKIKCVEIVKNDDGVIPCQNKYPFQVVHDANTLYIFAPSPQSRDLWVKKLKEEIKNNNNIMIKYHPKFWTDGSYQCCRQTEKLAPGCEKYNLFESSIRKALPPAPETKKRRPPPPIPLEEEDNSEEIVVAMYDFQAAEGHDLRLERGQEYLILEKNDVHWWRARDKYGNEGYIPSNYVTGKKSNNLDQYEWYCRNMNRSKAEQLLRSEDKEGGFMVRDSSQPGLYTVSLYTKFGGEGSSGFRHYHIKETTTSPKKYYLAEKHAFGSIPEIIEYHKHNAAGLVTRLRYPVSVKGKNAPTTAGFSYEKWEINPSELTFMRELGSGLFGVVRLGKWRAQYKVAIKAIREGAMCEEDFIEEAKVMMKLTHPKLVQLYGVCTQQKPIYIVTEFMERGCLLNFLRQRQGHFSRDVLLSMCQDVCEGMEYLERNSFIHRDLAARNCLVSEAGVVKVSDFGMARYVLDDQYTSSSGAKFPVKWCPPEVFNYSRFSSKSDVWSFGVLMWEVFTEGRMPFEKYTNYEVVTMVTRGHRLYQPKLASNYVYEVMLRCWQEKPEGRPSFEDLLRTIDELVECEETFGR
How it was run: as §1

[1] = wild-type Btk, read-out: Btk-WT IC50
[2] = method is one of A, B or C, not stated which, read-out: IC50 values against Btk

IC50 (panel of kinases) | IC50 (Btk; [1]) | IC50 (TEC) | TEC/Btk (TEC) | IC50 (Btk; [2]) | Compound
> 10000 nM | > 1000 nM | > 10000 nM | >10000 | – | C[C@@H](NC(=O)c1cc(C(C)(C)O)on1)c1ccc(-c2ccnc3[nH]nc(NC4CCN(S(C)(=O)=O)CC4)c23)cc1 [Example 203, 5-(2-hydroxypropan-2-yl)-N-{(1R)-1-[4-(3-{[1-(methanesulfonyl)piperidin-4-yl]amino}-1H-pyrazolo[3,4-b]pyridin-4-yl)phenyl]ethyl}-1,2-oxazole-3-carboxamide]
89 nM | 1.78 nM | 70 nM | 39 | – | C=CC(=O)N1CC[C@@H](Nc2n[nH]c3nccc(-c4ccc(CNC(=O)c5ccc(OC)cc5)c(F)c4)c23)C1 [Compound 49, (R)—N-(4-(3-((1-acryloylpyrrolidin-3-yl)amino)-1H-pyrazolo[3,4-b]pyridin-4-yl)-2-fluorobenzyl)-4-methoxybenzamide]
8480 nM | 505 nM | 7000 nM | 14 | – | O=C(NCc1ccc(-c2ccnc3[nH]nc(N[C@@H]4CCNC4)c23)cc1F)c1ccc(C2CC2)cc1 [Compound 35, 4-cyclopropyl-N-{[2-fluoro-4-(3-{[(3R)-pyrrolidin-3-yl]amino}-1H-pyrazolo[3,4-b]pyridin-4-yl)phenyl]methyl}benzamide]
1710 nM | > 10000 nM | 6410 nM | – | – | O=C(NCc1ccc(-c2ccnc3[nH]nc(N[C@@H]4CCNC4)c23)cc1F)c1ccccc1 [Compound 31, (R)—N-(2-fluoro-4-(3-(pyrrolidin-3-ylamino)-1H-pyrazolo[3,4-b]pyridin-4-yl)benzyl)benzamide]
440 nM | 11.6 nM | 1070 nM | 092 | – | C=CC(=O)N1CC[C@@H](Nc2n[nH]c3nccc(-c4cccc(NC(=O)c5ccc(C(C)(C)C)cc5)c4)c23)C1 [Example 263, 4-tert-butyl-N-[3-(3-{[(3R)-1-(prop-2-enoyl)pyrrolidin-3-yl]amino}-1H-pyrazolo[3,4-b]pyridin-4-yl)phenyl]benzamide]
133 nM | 40.6 nM | 671 nM | – | – | C=CC(=O)N1CC[C@@H](Nc2n[nH]c3nccc(-c4ccc(CNC(=O)c5cn6ccccc6n5)c(F)c4)c23)C1 [Example 377, N-{[2-fluoro-4-(3-{[(3R)-1-(prop-2-enoyl)pyrrolidin-3-yl]amino}-1H-pyrazolo[3,4-b]pyridin-4-yl)phenyl]methyl}imidazo [1,2-a]pyridine-2-carboxamide]
2090 nM | 0.658 nM | 1710 nM | 2599 | – | CC(C)(C)c1noc(C(=O)NCc2ccc(-c3ccnc4[nH]nc(N5CCC(NC(=O)c6ccccc6)CC5)c34)cc2F)n1 [Example 208, N-({4-[3-(4-benzamidopiperidin-1-yl)-1H-pyrazolo[3,4-b]pyridin-4-yl]-2-fluorophenyl}methyl)-3-tert-butyl-1,2,4-oxadiazole-5-carboxamide]
4440 nM | 172 nM | > 10000 nM | >100 | – | CC(C)(C)c1ccc(C(=O)NCc2ccc(-c3ccnc4[nH]nc(NC5CCNCC5)c34)cc2F)cc1 [Example 103, 4-tert-butyl-N-[(2-fluoro-4-{3-[(piperidin-4-yl)amino]-1H-pyrazolo[3,4-b]pyridin-4-yl}phenyl)methyl]benzamide]
1820 nM | 3.72 nM | 1750 nM | 470 | < 10 nM | C=CC(=O)N1CCC[C@H](Nc2n[nH]c3nccc(-c4ccc(CNC(=O)c5nc(C(C)(C)C)no5)c(F)c4)c23)C1 [Example 169, 3-tert-butyl-N-{[2-fluoro-4-(3-{[(3S)-1-(prop-2-enoyl)piperidin-3-yl]amino}-1H-pyrazolo[3,4-b]pyridin-4-yl)phenyl]methyl}-1,2,4-oxadiazole-5-carboxamide]
> 10000 nM | > 10000 nM | > 10000 nM | >100 | – | CC(C)(C)c1nc(C(=O)Nc2cccc(-c3ccnc4[nH]nc(N[C@@H]5CCNC5)c34)c2CO)no1 [Example 165, t-tert-butyl-N-[2-(hydroxymethyl)-3-(3-{[(3R)-pyrrolidin-3-yl]amino}-1H-pyrazolo[3,4-b]pyridin-4-yl)phenyl]-1,2,4-oxadiazole-3-carboxamide]
553 nM | 164 nM | 901 nM | 005 | – | C=CC(=O)N1CC[C@@H](Nc2n[nH]c3nccc(-c4cccc(NC(=O)c5noc(C(C)(C)C)n5)c4C)c23)C1 [Example 267, 5-tert-butyl-N-[2-methyl-3-(3-{[(3R)-1-(prop-2-enoyl)pyrrolidin-3-yl]amino}-1H-pyrazolo[3,4-b]pyridin-4-yl)phenyl]-1,2,4-oxadiazole-3-carboxamide]
8340 nM | 11.3 nM | 8070 nM | 714 | – | CC(=O)N1CC[C@H](Nc2n[nH]c3nccc(-c4ccc(CNC(=O)c5nc(C(C)(C)C)no5)c(F)c4)c23)C1 [Example 164, N-{[4-(3-{[(3S)-1-acetylpyrrolidin-3-yl]amino}-1H-pyrazolo[3,4-b]pyridin-4-yl)-2-fluorophenyl]methyl}-3-tert-butyl-1,2,4-oxadiazole-5-carboxamide]
> 10000 nM | 180 nM | > 10000 nM | >100 | – | CC(C)(C)c1nc(C(=O)NC2(c3ccc(-c4ccnc5[nH]nc(N[C@@H]6CCCNC6)c45)cc3)CC2)no1 [Example 70, 5-tert-butyl-N-{1-[4-(3-{[(3R)-piperidin-3-yl]amino}-1H-pyrazolo[3,4-b]pyridin-4-yl)phenyl]cyclopropyl}-1,2,4-oxaidazole-3-carboxamide]
30.3 nM | 1.19 nM | 52.6 nM | – | – | C=CC(=O)N[C@@H]1CCN(c2n[nH]c3nccc(-c4ccc(CNC(=O)c5nc6ccccc6o5)c(F)c4)c23)C1 [Example 395, N-{[2-fluoro-4-(3-{(3R)-3-[(prop-2-enoyl)amino]pyrrolidin-1-yl}-1H-pyrazolo[3,4-b]pyridin-4-yl)phenyl]methyl}-1,3-benzoxazole-2-carboxamide]
> 10000 nM | 433 nM | > 10000 nM | >100 | – | CC(C)(C)c1ccc2c(c1)CCN(Cc1ccc(-c3ccnc4[nH]nc(N[C@@H]5CCNC5)c34)cc1F)C2=O [Compound 36, 6-tert-butyl-2-{[2-fluoro-4-(3-{[(3R)-pyrrolidin-3-yl]amino}-1H-pyrazolo[3,4-b]pyridin-4-yl)phenyl]methyl}-1,2,3,4-tetrahydroisoquinolin-1-one]
> 10000 nM | 210 nM | > 10000 nM | >100 | – | CC(C)(C)c1nc(C(=O)NC2(c3ccc(-c4ccnc5[nH]nc(N[C@@H]6CCCNC6)c45)cc3F)CC2)no1 [Example 121, 5-tert-butyl-N-{1-[2-fluoro-4-(3-{[(3R)-piperidin-3-yl]amino}-1H-pyrazolo[3,4-b]pyridin-4-yl)phenyl]cyclopropyl}-1,2,4-oxadiazole-3-carboxamide]
> 10000 nM | 4.78 nM | 9450 nM | 1977 | < 10 nM | CC(C)N1CC[C@H](Nc2n[nH]c3nccc(-c4ccc(CNC(=O)c5nc(C(C)(C)C)no5)c(F)c4)c23)C1 [Example 163, 3-tert-butyl-N-{[2-fluoro-4-(3-{[(3S)-1-(propan-2-yl)pyrrolidin-3-yl]amino}-1H-pyrazolo[3,4-b]pyridin-4-yl)phenyl]methyl}-1,2,4-oxadiazole-5-carboxamide]
